Values belong to the compound of their own block, whether it stands above or below them.
Assays:
[1] = mice, stated as noted previously, no data shown, cited from earlier work
[2] = target: T1, recombinant human ULK1 protein (1-649) (Homo sapiens, UniProt O75385); assay: ULK1 ADP-Glo kinase assay; assay type: biochemical; settings: for ULK1 ADP-Glo potency compared with compound 3: in words
T1 sequence (O75385 1-649): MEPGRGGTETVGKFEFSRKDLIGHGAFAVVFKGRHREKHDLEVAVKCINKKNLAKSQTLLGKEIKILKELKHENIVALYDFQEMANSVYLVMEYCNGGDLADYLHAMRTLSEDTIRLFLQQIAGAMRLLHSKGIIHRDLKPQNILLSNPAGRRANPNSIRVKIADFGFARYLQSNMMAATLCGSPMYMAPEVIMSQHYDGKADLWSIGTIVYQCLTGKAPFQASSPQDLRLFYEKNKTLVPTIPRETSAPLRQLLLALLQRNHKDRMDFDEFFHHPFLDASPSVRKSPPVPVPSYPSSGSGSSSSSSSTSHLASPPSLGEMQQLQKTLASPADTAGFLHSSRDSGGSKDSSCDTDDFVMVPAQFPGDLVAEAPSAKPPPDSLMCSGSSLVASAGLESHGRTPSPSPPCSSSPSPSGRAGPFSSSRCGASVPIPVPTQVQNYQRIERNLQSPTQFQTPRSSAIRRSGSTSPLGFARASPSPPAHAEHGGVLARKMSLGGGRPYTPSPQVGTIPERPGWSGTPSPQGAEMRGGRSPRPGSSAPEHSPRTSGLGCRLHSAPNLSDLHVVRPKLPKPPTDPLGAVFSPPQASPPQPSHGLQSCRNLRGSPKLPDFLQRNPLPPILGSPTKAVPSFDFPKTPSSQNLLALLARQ

Kinetic solubility = assay type: physicochemical
[3] = target: T2, ULK1 (NanoLuc-ULK1 fusion) (Homo sapiens, UniProt O75385); assay: ULK1 NanoBRET intracellular kinase target engagement assay in HEK293T cells; assay type: cell-based; settings: HEK293T live cells
T2 sequence (O75385 1-1050): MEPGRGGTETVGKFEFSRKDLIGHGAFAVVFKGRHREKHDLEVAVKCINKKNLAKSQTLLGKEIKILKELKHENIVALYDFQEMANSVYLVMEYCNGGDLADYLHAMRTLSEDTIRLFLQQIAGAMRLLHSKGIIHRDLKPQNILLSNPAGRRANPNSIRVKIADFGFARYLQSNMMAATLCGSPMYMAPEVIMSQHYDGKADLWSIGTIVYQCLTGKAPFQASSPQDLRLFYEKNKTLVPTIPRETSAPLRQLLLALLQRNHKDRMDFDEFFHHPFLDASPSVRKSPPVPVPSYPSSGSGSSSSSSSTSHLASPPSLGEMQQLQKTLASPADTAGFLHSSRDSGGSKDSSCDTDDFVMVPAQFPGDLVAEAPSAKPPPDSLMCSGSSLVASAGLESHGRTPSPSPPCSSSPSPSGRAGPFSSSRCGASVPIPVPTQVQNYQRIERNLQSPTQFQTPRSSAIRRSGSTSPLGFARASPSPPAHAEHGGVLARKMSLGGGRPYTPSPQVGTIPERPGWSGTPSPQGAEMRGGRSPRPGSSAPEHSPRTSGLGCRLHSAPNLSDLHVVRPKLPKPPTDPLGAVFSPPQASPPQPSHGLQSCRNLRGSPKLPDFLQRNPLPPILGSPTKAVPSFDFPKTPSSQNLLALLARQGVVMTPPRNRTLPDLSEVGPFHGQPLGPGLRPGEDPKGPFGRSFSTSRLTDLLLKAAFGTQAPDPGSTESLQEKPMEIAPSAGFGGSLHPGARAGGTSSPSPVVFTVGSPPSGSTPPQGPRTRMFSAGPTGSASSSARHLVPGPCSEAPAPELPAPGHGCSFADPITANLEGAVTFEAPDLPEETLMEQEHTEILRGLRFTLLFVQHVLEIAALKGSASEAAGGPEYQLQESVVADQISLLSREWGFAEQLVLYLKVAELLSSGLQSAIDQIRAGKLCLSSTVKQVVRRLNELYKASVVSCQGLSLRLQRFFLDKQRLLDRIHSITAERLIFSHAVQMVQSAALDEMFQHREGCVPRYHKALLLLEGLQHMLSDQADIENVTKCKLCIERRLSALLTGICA

[4] = tested on: pATG13 (Ser318), ATG13 and ULK1 in liver lysates; assay: PD study, in vivo target engagement in mouse liver; settings: mice, 10 mg/kg oral gavage, 2 h post dosing
MDA-MB-468 cells = assay: Combination dose-response matrix with PARP inhibitors, Combenefit Loewe model; assay type: cell-based, human; settings: combination with niraparib; synergy at 26 0.19–1.7 μM and niraparib 3.8–7.5 μM
[5] = tested on: autophagosomes in MDA-MB-468 cells; assay: TEM imaging of autophagosomes; assay type: cell-based, human; settings: EBSS starved cells, 10 μM
[6] = tested on: autophagic flux in MDA-MB-468 cells expressing mCherry-EGFP-LC3; assay: mCherry-GFP-LC3 FACS autophagic flux assay; assay type: cell-based, human; settings: 48 h
[7] = PK study in mice, plasma concentration by LC-MS/MS; settings: single oral dose 30 mg/kg

Compound: CNC(=O)c1ccccc1Oc1nc(Nc2cc(OC)c(OC)c(OC)c2)ncc1Br [compound 1]
systemic exposure ([1]; ip dosing): poor systemic exposure | oral bioavailability [1]: no measurable oral bioavailability

ULK1 ADP-Glo potency compared with compound 3 [2]: approximately equipotent with 3
Compound: FC(F)(F)c1cnc(Nc2ccc3[nH]ccc3c2)nc1NC1CC1 [compound 8, N^4-Cyclopropyl-N^2-(1H-indol-5-yl)-5-(trifluoromethyl)-pyrimidine-2,4-diamine]

fold more potent than compound 3 in ULK1 ADP-Glo [2]: about 4 fold
Compound: FC(F)(F)c1cnc(Nc2ccc3nn[nH]c3c2)nc1NC1CC1 [compound 10, N^2-(1 H-Benzo[d][1,2,3]triazol-6-yl)-N^4-cyclopropyl-5-(trifluoromethyl)pyrimidine-2,4-diamine]

solubility in PBS (in words) (Kinetic solubility): limited solubility | ULK1 ADP-Glo potency compared with compound 3 [2]: approximately equipotent with 3
Compound: FC(F)(F)c1cnc(Nc2cnc3[nH]ccc3c2)nc1NC1CC1 [compound 11, N^4-Cyclopropyl-N^2-(1H-pyrrolo[2,3-b]pyridin-5-yl)-5-(trifluoromethyl)pyrimidine-2,4-diamine]

ULK1 ADP-Glo potency compared with compound 3 [2]: approximately equipotent with 3
Compound: FC(F)(F)c1cnc(Nc2ccc3ncoc3c2)nc1NC1CC1 [compound 15, N^2-(Benzo[d]oxazol-6-yl)-N^4-cyclopropyl-5-(trifluoromethyl)pyrimidine-2,4-diamine]

ULK1 NanoBRET IC50 (range in words) [3]: sub-micromolar range
Compound: FC(F)(F)c1cnc(Nc2ccc3ncccc3c2)nc1NC1CC1 [compound 16, N^4-Cyclopropyl-N^2-(quinolin-6-yl)-5-(trifluoromethyl)-pyrimidine-2,4-diamine]

solubility in PBS (in words) (Kinetic solubility): limited solubility
Compound: O=C1CCCc2cc(Nc3ncc(C(F)(F)F)c(NC4CC4)n3)ccc21 [compound 19, 6-((4-(Cyclopropylamino)-5-(trifluoromethyl)pyrimidin-2-yl)amino)-3,4-dihydronaphthalen-1(2H)-one]

ULK1 NanoBRET IC50 (range in words) [3]: sub-micromolar range
Compound: Nc1ccc(Nc2ncc(C(F)(F)F)c(NC3CC3)n2)cc1 [compound 23, N^2-(4-Aminophenyl)-N^4-cyclopropyl-5-(trifluoro-methyl)-pyrimidine-2,4-diamine]

Compound: COc1ccc(Nc2ncc(C(F)(F)F)c(NC3CC3)n2)cc1OC [compound 26, N^4-Cyclopropyl-N^2-(3,4-dimethoxyphenyl)-5-(trifluoromethyl)pyrimidine-2,4-diamine]
effect on pATG13 (Ser318) in liver [4]: robust inhibition of pATG13 (Ser318) | effect on total ATG13 and ULK1 levels in liver [4]: downregulation of total ATG13 and ULK1 levels | maximum synergy score (Loewe) (MDA-MB-468 cells): 26 | number of autophagosomes by TEM [5]: decreased the number of autophagosomes to a greater extent than SBI-0206965 | effect on olaparib-induced increase in autophagic flux ([6]; 10 μM with olaparib 30 μM): significantly suppressed the olaparib-induced increase in autophagic flux to a level similar to that observed in untreated control cells | ULK1 NanoBRET IC50 (range in words) [3]: sub-micromolar range | Cmax relative to ULK1 NanoBRET IC50 [7]: about 3 fold

Compound: O=C(c1cc(Cc2n[nH]c(=O)c3ccccc23)ccc1F)N1CCN(C(=O)C2CC2)CC1 [olaparib, reference compound]
increase in autophagic flux compared with control cells ([6]; 30 μM): approximately 30%
